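Growth conditions: 96-well plates. Treatment: test compound, 48 hours, 5 concentrations. Analysis: linear interpolation between bracketing concentrations; unreached endpoints set to highest concentration. Abbreviation: GI50, concentration required for 50% inhibition of growth. TGI is the concentration that stops growth completely.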
Assays:
Test in all cases: DTP human tumour cell line panel, 48 h
K-562 leukemia = test system: K-562 leukemia
RXF 393 renal = test system: RXF 393 renal
SNB-75 CNS = test system: SNB-75 CNS
SK-OV-3 ovarian = test system: SK-OV-3 ovarian
NCI/ADR-RES ovarian = test system: NCI/ADR-RES ovarian
HL-60(TB) leukemia = test system: HL-60(TB) leukemia
ACHN renal = test system: ACHN renal
A498 renal = test system: A498 renal
SF-539 CNS = test system: SF-539 CNS
SW-620 colon = test system: SW-620 colon
HCC-2998 colon = test system: HCC-2998 colon
SK-MEL-28 melanoma = test system: SK-MEL-28 melanoma
SK-MEL-5 melanoma = test system: SK-MEL-5 melanoma
HCT-15 colon = test system: HCT-15 colon
A549 NSCLC = test system: A549 NSCLC
HS 578T breast = test system: HS 578T breast
UACC-257 melanoma = test system: UACC-257 melanoma
CAKI-1 renal = test system: CAKI-1 renal
NCI-H522 lung = test system: NCI-H522 lung
KM12 colon = test system: KM12 colon
BT-549 breast = test system: BT-549 breast
U251 CNS = test system: U251 CNS
HOP-62 NSCLC = test system: HOP-62 NSCLC
PC-3 prostate = test system: PC-3 prostate
786-0 renal = test system: 786-0 renal
MDA-MB-435 = test system: MDA-MB-435
TK-10 renal = test system: TK-10 renal
SN12C renal = test system: SN12C renal
HOP-92 NSCLC = test system: HOP-92 NSCLC
OVCAR-5 ovarian = test system: OVCAR-5 ovarian
M14 melanoma = test system: M14 melanoma
EKVX NSCLC = test system: EKVX NSCLC
COLO 205 colon = test system: COLO 205 colon
MDA-MB-231 breast = test system: MDA-MB-231 breast
HT29 colon = test system: HT29 colon
SK-MEL-2 melanoma = test system: SK-MEL-2 melanoma
HCT-116 colon = test system: HCT-116 colon
MCF7 breast = test system: MCF7 breast
IGROV1 ovarian = test system: IGROV1 ovarian
NCI-H23 lung = test system: NCI-H23 lung
SNB-19 CNS = test system: SNB-19 CNS
OVCAR-4 ovarian = test system: OVCAR-4 ovarian
SF-268 CNS = test system: SF-268 CNS
T-47D breast = test system: T-47D breast
SR leukemia = test system: SR leukemia
MALME-3M melanoma = test system: MALME-3M melanoma
NCI-H460 lung = test system: NCI-H460 lung
SF-295 CNS = test system: SF-295 CNS
OVCAR-8 ovarian = test system: OVCAR-8 ovarian
DU-145 prostate = test system: DU-145 prostate
LOX IMVI melanoma = test system: LOX IMVI melanoma
UO-31 renal = test system: UO-31 renal
NCI-H226 lung = test system: NCI-H226 lung
UACC-62 melanoma = test system: UACC-62 melanoma

Question: Which GI50 (K-562 leukemia) does the source give for `NC(N)=Nc1ccc(Oc2cccc(Nc3ccc(Cl)c(C(F)(F)F)c3)c2)cn1` here?
Answer: 1910 nM

Question: And the TGI (K-562 leukemia)?
Answer: > 100 µM

Question: What about the GI50 (RXF 393 renal) of the same compound?
Answer: 1780 nM

Question: And the TGI (RXF 393 renal)?
Answer: 3.58 µM

Question: And the GI50 (SNB-75 CNS)?
Answer: 1420 nM

Question: What about the TGI (SNB-75 CNS) of the same compound?
Answer: 2770 nM

Question: And the GI50 (SK-OV-3 ovarian)?
Answer: 1890 nM

Question: What about the TGI (SK-OV-3 ovarian) of the same compound?
Answer: 3.43 µM

Question: And the GI50 (NCI/ADR-RES ovarian)?
Answer: 3740 nM

Question: And the TGI (NCI/ADR-RES ovarian)?
Answer: 30.5 µM

Question: What about the GI50 (HL-60(TB) leukemia) of the same compound?
Answer: 1890 nM

Question: What about the TGI (HL-60(TB) leukemia) of the same compound?
Answer: 4.52 µM

Question: What about the GI50 (ACHN renal) of the same compound?
Answer: 1740 nM

Question: What about the TGI (ACHN renal) of the same compound?
Answer: 3.21 µM

Question: And the GI50 (A498 renal)?
Answer: 1230 nM

Question: What about the TGI (A498 renal) of the same compound?
Answer: 2670 nM

Question: `COc1cc2c(cc1OC)C(Sc1ccc(C)cc1)c1c(nc(N)c(C#N)c1N)O2` (centres undefined) was tested. Which GI50 (SF-539 CNS) did it give?
Answer: 1570 nM

Question: What about the TGI (SF-539 CNS) of the same compound?
Answer: 2930 nM

Question: What about the GI50 (SW-620 colon) of the same compound?
Answer: 1240 nM

Question: And the TGI (SW-620 colon)?
Answer: 2740 nM

Question: And the GI50 (HCC-2998 colon)?
Answer: 1580 nM

Question: And the TGI (HCC-2998 colon)?
Answer: 3.12 µM

Question: And the GI50 (SK-MEL-28 melanoma)?
Answer: 1670 nM

Question: What about the TGI (SK-MEL-28 melanoma) of the same compound?
Answer: 3.06 µM

Question: What about the GI50 (SK-MEL-5 melanoma) of the same compound?
Answer: 1780 nM

Question: And the TGI (SK-MEL-5 melanoma)?
Answer: 3.22 µM

Question: And the GI50 (HCT-15 colon)?
Answer: 1000 nM

Question: What about the TGI (HCT-15 colon) of the same compound?
Answer: 2430 nM

Question: What about the GI50 (K-562 leukemia) of the same compound?
Answer: 558 nM

Question: What about the TGI (K-562 leukemia) of the same compound?
Answer: > 100 µM

Question: And the GI50 (A549 NSCLC)?
Answer: 1730 nM

Question: And the TGI (A549 NSCLC)?
Answer: 3.27 µM

Question: What about the GI50 (HS 578T breast) of the same compound?
Answer: 1970 nM

Question: And the TGI (HS 578T breast)?
Answer: 4.87 µM

Question: And the GI50 (UACC-257 melanoma)?
Answer: 1630 nM

Question: What about the TGI (UACC-257 melanoma) of the same compound?
Answer: 3.07 µM

Question: And the GI50 (CAKI-1 renal)?
Answer: 1050 nM

Question: And the TGI (CAKI-1 renal)?
Answer: 2250 nM

Question: And the GI50 (NCI-H522 lung)?
Answer: 1620 nM

Question: What about the TGI (NCI-H522 lung) of the same compound?
Answer: 3.07 µM

Question: What about the GI50 (KM12 colon) of the same compound?
Answer: 1630 nM

Question: What about the TGI (KM12 colon) of the same compound?
Answer: 3.01 µM

Question: And the GI50 (BT-549 breast)?
Answer: 1220 nM

Question: And the TGI (BT-549 breast)?
Answer: 2490 nM

Question: What about the GI50 (RXF 393 renal) of the same compound?
Answer: 1150 nM

Question: What about the TGI (RXF 393 renal) of the same compound?
Answer: 2.42 µM

Question: What about the GI50 (U251 CNS) of the same compound?
Answer: 1360 nM

Question: And the TGI (U251 CNS)?
Answer: 2750 nM

Question: What about the GI50 (SNB-75 CNS) of the same compound?
Answer: 1220 nM

Question: What about the TGI (SNB-75 CNS) of the same compound?
Answer: 2470 nM

Question: What about the GI50 (HOP-62 NSCLC) of the same compound?
Answer: 1800 nM

Question: And the TGI (HOP-62 NSCLC)?
Answer: 3.24 µM

Question: And the GI50 (SK-OV-3 ovarian)?
Answer: 1910 nM

Question: And the TGI (SK-OV-3 ovarian)?
Answer: 3.35 µM

Question: And the GI50 (PC-3 prostate)?
Answer: 1510 nM

Question: And the TGI (PC-3 prostate)?
Answer: 2930 nM

Question: And the GI50 (786-0 renal)?
Answer: 1420 nM

Question: What about the TGI (786-0 renal) of the same compound?
Answer: 2790 nM

Question: What about the GI50 (NCI/ADR-RES ovarian) of the same compound?
Answer: 1670 nM

Question: What about the TGI (NCI/ADR-RES ovarian) of the same compound?
Answer: 3.37 µM

Question: What about the GI50 (MDA-MB-435) of the same compound?
Answer: 1580 nM

Question: And the TGI (MDA-MB-435)?
Answer: 3.01 µM

Question: What about the GI50 (TK-10 renal) of the same compound?
Answer: 1200 nM

Question: What about the TGI (TK-10 renal) of the same compound?
Answer: 2470 nM

Question: What about the GI50 (SN12C renal) of the same compound?
Answer: 1490 nM

Question: And the TGI (SN12C renal)?
Answer: 2860 nM

Question: And the GI50 (HOP-92 NSCLC)?
Answer: 1510 nM

Question: What about the TGI (HOP-92 NSCLC) of the same compound?
Answer: 2930 nM

Question: What about the GI50 (OVCAR-5 ovarian) of the same compound?
Answer: 1810 nM

Question: And the TGI (OVCAR-5 ovarian)?
Answer: 3.31 µM

Question: What about the GI50 (M14 melanoma) of the same compound?
Answer: 1770 nM

Question: What about the TGI (M14 melanoma) of the same compound?
Answer: 3.29 µM

Question: What about the GI50 (EKVX NSCLC) of the same compound?
Answer: 1690 nM

Question: And the TGI (EKVX NSCLC)?
Answer: 3.13 µM

Question: What about the GI50 (COLO 205 colon) of the same compound?
Answer: 1490 nM

Question: What about the TGI (COLO 205 colon) of the same compound?
Answer: 2870 nM

Question: What about the GI50 (MDA-MB-231 breast) of the same compound?
Answer: 1650 nM

Question: And the TGI (MDA-MB-231 breast)?
Answer: 3.13 µM

Question: And the GI50 (HT29 colon)?
Answer: 1770 nM

Question: And the TGI (HT29 colon)?
Answer: 3.43 µM

Question: What about the GI50 (SK-MEL-2 melanoma) of the same compound?
Answer: 1590 nM

Question: And the TGI (SK-MEL-2 melanoma)?
Answer: 2990 nM

Question: And the GI50 (HCT-116 colon)?
Answer: 1510 nM

Question: What about the TGI (HCT-116 colon) of the same compound?
Answer: 3.03 µM

Question: And the GI50 (HL-60(TB) leukemia)?
Answer: 431 nM

Question: What about the TGI (HL-60(TB) leukemia) of the same compound?
Answer: 4.05 µM

Question: And the GI50 (MCF7 breast)?
Answer: 742 nM

Question: And the TGI (MCF7 breast)?
Answer: 2270 nM

Question: What about the GI50 (IGROV1 ovarian) of the same compound?
Answer: 715 nM

Question: What about the TGI (IGROV1 ovarian) of the same compound?
Answer: 2040 nM

Question: What about the GI50 (NCI-H23 lung) of the same compound?
Answer: 1590 nM

Question: What about the TGI (NCI-H23 lung) of the same compound?
Answer: 3.1 µM

Question: And the GI50 (ACHN renal)?
Answer: 1510 nM

Question: What about the TGI (ACHN renal) of the same compound?
Answer: 2.86 µM

Question: And the GI50 (SNB-19 CNS)?
Answer: 1460 nM

Question: What about the TGI (SNB-19 CNS) of the same compound?
Answer: 2840 nM

Question: And the GI50 (OVCAR-4 ovarian)?
Answer: 1660 nM

Question: What about the TGI (OVCAR-4 ovarian) of the same compound?
Answer: 3.07 µM

Question: What about the GI50 (SF-268 CNS) of the same compound?
Answer: 1560 nM

Question: What about the TGI (SF-268 CNS) of the same compound?
Answer: 3.08 µM

Question: What about the GI50 (T-47D breast) of the same compound?
Answer: 1220 nM

Question: And the TGI (T-47D breast)?
Answer: 3.56 µM

Question: And the GI50 (SR leukemia)?
Answer: 291 nM

Question: And the TGI (SR leukemia)?
Answer: > 100 µM

Question: What about the GI50 (A498 renal) of the same compound?
Answer: 1380 nM

Question: And the TGI (A498 renal)?
Answer: 2670 nM

Question: What about the GI50 (MALME-3M melanoma) of the same compound?
Answer: 1740 nM

Question: And the TGI (MALME-3M melanoma)?
Answer: 3.24 µM

Question: And the GI50 (NCI-H460 lung)?
Answer: 1760 nM

Question: And the TGI (NCI-H460 lung)?
Answer: 3.36 µM

Question: What about the GI50 (SF-295 CNS) of the same compound?
Answer: 1600 nM

Question: And the TGI (SF-295 CNS)?
Answer: 3.05 µM

Question: What about the GI50 (OVCAR-8 ovarian) of the same compound?
Answer: 1550 nM

Question: What about the TGI (OVCAR-8 ovarian) of the same compound?
Answer: 2910 nM

Question: What about the GI50 (DU-145 prostate) of the same compound?
Answer: 1680 nM

Question: What about the TGI (DU-145 prostate) of the same compound?
Answer: 3.05 µM

Question: And the GI50 (LOX IMVI melanoma)?
Answer: 1050 nM

Question: What about the TGI (LOX IMVI melanoma) of the same compound?
Answer: 2420 nM

Question: And the GI50 (UO-31 renal)?
Answer: 1070 nM

Question: And the TGI (UO-31 renal)?
Answer: 2250 nM

Question: And the GI50 (NCI-H226 lung)?
Answer: 1900 nM

Question: What about the TGI (NCI-H226 lung) of the same compound?
Answer: 3.99 µM

Question: And the GI50 (UACC-62 melanoma)?
Answer: 1740 nM

Question: What about the TGI (UACC-62 melanoma) of the same compound?
Answer: 3.22 µM

Reference: PubChem BioAssay (NCI)
